# Test results taken from patent US20060069132A1, “Azolecarboxamide herbicides” (priority 2004, published 2006).
# What was measured:
# barnyardgrass [1] = assay: Test B pre-/postemergence herbicide test; type: in vivo, Echinochloa crus-galli; conditions: for Plant response rating, Barnyardgrass: preemergence; for Barnyardgrass plant response rating: postemergence, visual rating, scale 0 (no effect) to 100 (complete control)
# How it was run: (§1)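 Greenhouse pot assay with simultaneous preemergence (treated seed) and postemergence (2–18 cm seedlings) applications of surfactant-containing, non-phytotoxic solvent formulations. Response scored visually 13–15 days later on a 0–100 scale, 100 meaning complete control.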
# cocklebur = assay: Test B pre-/postemergence herbicide test; type: in vivo, Xanthium strumarium; conditions: for Cocklebur plant response rating: postemergence, visual rating, scale 0 (no effect) to 100 (complete control)
# How it was run: as §1
# corn = assay: Test B pre-/postemergence herbicide test; type: in vivo, Zea mays; conditions: for Plant response rating, Corn: preemergence; for Corn plant response rating: postemergence, visual rating, scale 0 (no effect) to 100 (complete control)
# How it was run: (§2)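 Seeds were planted and treated preemergence with compounds formulated in a non-phytotoxic solvent mixture containing surfactant, while plants at the 1- to 4-leaf stage (2 to 18 cm) received postemergence sprays. Flooded paddy plants were grown to the 2-leaf stage. After 13 to 15 days in a greenhouse, injury was visually rated 0–100 against untreated controls.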
# large crabgrass = assay: Test B pre-/postemergence herbicide test; type: in vivo, Digitaria sanguinalis; conditions: for Plant response rating, Crabgrass, Large: preemergence; for Crabgrass, Large plant response rating: postemergence, visual rating, scale 0 (no effect) to 100 (complete control)
# How it was run: as §2
# giant foxtail = assay: Test B pre-/postemergence herbicide test; type: in vivo, Setaria faberi; conditions: for Plant response rating, Foxtail, Giant: preemergence; for Foxtail, Giant plant response rating: postemergence, visual rating, scale 0 (no effect) to 100 (complete control)
# How it was run: as §2
# lambsquarters = assay: Test B pre-/postemergence herbicide test; type: in vivo, Chenopodium album; conditions: for Plant response rating, Lambsquarters: preemergence; for Lambsquarters plant response rating: postemergence, visual rating, scale 0 (no effect) to 100 (complete control)
# How it was run: as §2
# morningglory = assay: Test B pre-/postemergence herbicide test; type: in vivo, Ipomoea coccinea; conditions: postemergence, visual rating, scale 0 (no effect) to 100 (complete control)
# How it was run: as §1
# pigweed = assay: Test B pre-/postemergence herbicide test; type: in vivo, Amaranthus retroflexus; conditions: for Plant response rating, Pigweed: preemergence; for Pigweed plant response rating: postemergence, visual rating, scale 0 (no effect) to 100 (complete control)
# How it was run: as §2
# velvetleaf = assay: Test B pre-/postemergence herbicide test; type: in vivo, Abutilon theophrasti; conditions: for Plant response rating, Velvetleaf: preemergence; for Velvetleaf plant response rating: postemergence, visual rating, scale 0 (no effect) to 100 (complete control)
# How it was run: as §2
# blackgrass = assay: Test B postemergence herbicide test; type: in vivo, Alopecurus myosuroides; conditions: postemergence, visual rating, scale 0 (no effect) to 100 (complete control)
# How it was run: (§3)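 Greenhouse test; postemergence application to plants at 1–4 leaves (2–18 cm); paddy species at 2 leaves; evaluated visually vs controls at 13–15 days; scale 0–100 (100 = complete control).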
# wild oat = assay: Test B postemergence herbicide test; type: in vivo, Avena fatua; conditions: postemergence, visual rating, scale 0 (no effect) to 100 (complete control)
# How it was run: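 Each value is a visual 0–100 response rating taken against controls 13 to 15 days after treatment in the greenhouse. Plants received formulated chemical postemergence at the 1- to 4-leaf stage or, in flooded paddy, at the 2-leaf stage.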
# rice = assay: Test B flooded paddy test; type: in vivo, Oryza sativa; conditions: 1000 g ai/ha, visual rating, scale 0 to 100 (0 no effect, 100 complete control), 13 to 15 days
# How it was run: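 Visual ratings, 0 (no effect) to 100 (complete control), made versus controls after 13–15 d greenhouse. Paddy plants treated at 2-leaf stage; postemergence plants at 1- to 4-leaf stage, 2–18 cm tall.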
# [2] = system: small flower umbrella sedge; assay: Test B flooded paddy test; type: in vivo, Cyperus difformis; conditions: 1000 g ai/ha, visual rating, scale 0 to 100 (0 no effect, 100 complete control), 13 to 15 days
# How it was run: as §3
# ducksalad = assay: Test B flooded paddy test; type: in vivo, Heteranthera limosa; conditions: 1000 g ai/ha, visual rating, scale 0 to 100 (0 no effect, 100 complete control), 13 to 15 days
# How it was run: as §3
# barnyardgrass [3] = assay: Test B flooded paddy test; type: in vivo, Echinochloa crus-galli; conditions: 1000 g ai/ha, visual rating, scale 0 to 100 (0 no effect, 100 complete control), 13 to 15 days
# How it was run: as §3
# [4] = 500 g ai/ha, visual rating 0-100, 0 no effect, 100 complete control
# [5] = 125 g ai/ha, 0 to 100 scale, 0 is no effect, 100 is complete control
compound,measurement,setting,value
CCn1nc(C(C)(C)C)cc1C(=O)Nc1cc(C#N)ccc1F [Compound 140],"Plant response rating, Barnyardgrass",barnyardgrass [1]; [4],80
same,Barnyardgrass plant response rating,barnyardgrass [1]; 125 g ai/ha,0
same,Barnyardgrass plant response rating,barnyardgrass [1]; 500 g ai/ha,0
same,"Plant response rating, Barnyardgrass",barnyardgrass [1]; [5],20
same,"Plant response rating, Cocklebur","cocklebur; 500 g ai/ha, visual rating 0-100, 0 no effect, 100 complete control, preemergence",80
same,Cocklebur plant response rating,cocklebur; 125 g ai/ha,0
same,Cocklebur plant response rating,cocklebur; 500 g ai/ha,20
same,"Plant response rating, Corn",corn; [4],0
same,Corn plant response rating,corn; 125 g ai/ha,0
same,Corn plant response rating,corn; 500 g ai/ha,10
same,"Plant response rating, Corn",corn; [5],0
same,"Plant response rating, Crabgrass, Large",large crabgrass; [4],100
same,"Crabgrass, Large plant response rating",large crabgrass; 125 g ai/ha,0
same,"Crabgrass, Large plant response rating",large crabgrass; 500 g ai/ha,0
same,"Plant response rating, Crabgrass, Large",large crabgrass; [5],0
same,"Plant response rating, Foxtail, Giant",giant foxtail; [4],80
same,"Foxtail, Giant plant response rating",giant foxtail; 125 g ai/ha,0
same,"Foxtail, Giant plant response rating",giant foxtail; 500 g ai/ha,0
same,"Plant response rating, Foxtail, Giant",giant foxtail; [5],0
same,"Plant response rating, Lambsquarters",lambsquarters; [4],100
same,Lambsquarters plant response rating,lambsquarters; 125 g ai/ha,20
same,Lambsquarters plant response rating,lambsquarters; 500 g ai/ha,80
same,"Plant response rating, Lambsquarters",lambsquarters; [5],0
same,Morningglory plant response rating,morningglory; 125 g ai/ha,0
same,Morningglory plant response rating,morningglory; 500 g ai/ha,0
same,"Plant response rating, Pigweed",pigweed; [4],80
same,Pigweed plant response rating,pigweed; 125 g ai/ha,0
same,Pigweed plant response rating,pigweed; 500 g ai/ha,0
same,"Plant response rating, Pigweed",pigweed; [5],0
same,"Plant response rating, Velvetleaf",velvetleaf; [4],20
same,Velvetleaf plant response rating,velvetleaf; 125 g ai/ha,0
same,Velvetleaf plant response rating,velvetleaf; 500 g ai/ha,0
same,"Plant response rating, Velvetleaf",velvetleaf; [5],0
same,Blackgrass plant response rating,blackgrass; 125 g ai/ha,0
same,Blackgrass plant response rating,blackgrass; 500 g ai/ha,0
same,"Oat, Wild plant response rating",wild oat; 125 g ai/ha,0
same,"Oat, Wild plant response rating",wild oat; 500 g ai/ha,0
same,Rice plant response rating,rice,30
same,"Sedge, Umbrella plant response rating",[2],80
same,Ducksalad plant response rating,ducksalad,80
same,Barnyardgrass plant response rating,barnyardgrass [3],70
